pIC50: −log10 of the molar value. Several values for one entry are separate records, joined by “and”; a condition that tells them apart may be missing. Equal values may be shown once.
Tested on: 435261-313-R-J1-PDC tumor spheroid viability
Assay: Anticancer human tumor 435261-313-R-J1-PDC patient-derived colon adenocarcinoma cell line growth inhibition [PI3K]
Conditions: spheroids with HUVEC and MSC; for viability, T/C: stronger effect = lower value
How it was run: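 Viability of mixed-cell spheroids was determined after exposure to pairwise combinations, one partner being inavolisib, alpelisib, duvelisib or copanlisib. Highest tested concentration matched clinical Cmax where known and 10 microM where not, descending in half-log steps.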

[1] = curve of first compound, second compound 0.0316 µM
[2] = curve of first compound, second compound 0.1 µM
[3] = curve of first compound, second compound 0.316 µM
[4] = curve of first compound, second compound 1 µM
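Also: spheroids exposed to compounds for 7 days.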

`Cn1cnc2c(F)c(Nc3ccc(Br)cc3Cl)c(C(=O)NOCCO)cc21` + COc1c(OCCCN2CCOCC2)ccc2c3n(c(=NC(=O)c4cnc(N)nc4)nc12)CCN3 was tested. Which pIC50 (curve of first compound, second compound 0.00316 µM) did it give?
The pIC50 was greater than 8.02.

And the pIC50 (curve of first compound, second compound 0.01 µM)?
Its pIC50 is greater than 8.02.

What about the pIC50 [1] of the same compound?
Its pIC50 is greater than 8.02.

What about the pIC50 [2] of the same compound?
Its pIC50 is greater than 8.02.

What about the pIC50 [3] of the same compound?
Its pIC50 is greater than 8.02.

And the pIC50 [4]?
The pIC50 was greater than 8.02.

What about the viability, T/C (second compound 0.00316 µM, first compound 0.00949 µM) of the same compound?
The viability, T/C was 29.7%.

What about the viability, T/C (second compound 0.00316 µM, first compound 0.03 µM) of the same compound?
The viability, T/C was 25.4%.

And the viability, T/C (second compound 0.00316 µM, first compound 0.0949 µM)?
The viability, T/C was 20.5%.

What about the viability, T/C (second compound 0.00316 µM, first compound 0.3 µM) of the same compound?
The viability, T/C was 19%.

And the viability, T/C (second compound 0.00316 µM, first compound 0.949 µM)?
Its viability, T/C is 19.1%.

What about the viability, T/C (second compound 0.00316 µM, first compound 3 µM) of the same compound?
Its viability, T/C is 14.2%.

And the viability, T/C (second compound 0.01 µM, first compound 0.00949 µM)?
Its viability, T/C is 24.2%.

And the viability, T/C (second compound 0.01 µM, first compound 0.03 µM)?
Its viability, T/C is 20.6%.

And the viability, T/C (second compound 0.01 µM, first compound 0.0949 µM)?
The viability, T/C was 22.4%.

And the viability, T/C (second compound 0.01 µM, first compound 0.3 µM)?
The viability, T/C was 17.8%.

What about the viability, T/C (second compound 0.01 µM, first compound 0.949 µM) of the same compound?
The viability, T/C was 16.4%.

And the viability, T/C (second compound 0.01 µM, first compound 3 µM)?
Its viability, T/C is 9.17%.

And the viability, T/C (second compound 0.0316 µM, first compound 0.00949 µM)?
Its viability, T/C is 30.9%.

And the viability, T/C (second compound 0.0316 µM, first compound 0.03 µM)?
Its viability, T/C is 16.9%.

And the viability, T/C (second compound 0.0316 µM, first compound 0.0949 µM)?
Its viability, T/C is 14.4%.

And the viability, T/C (second compound 0.0316 µM, first compound 0.3 µM)?
Its viability, T/C is 11.1%.

And the viability, T/C (second compound 0.0316 µM, first compound 0.949 µM)?
Its viability, T/C is 11.4%.

And the viability, T/C (second compound 0.0316 µM, first compound 3 µM)?
The viability, T/C was 3.71%.

What about the viability, T/C (second compound 0.1 µM, first compound 0.00949 µM) of the same compound?
The viability, T/C was 8.18%.

And the viability, T/C (second compound 0.1 µM, first compound 0.03 µM)?
The viability, T/C was 7.27%.

What about the viability, T/C (second compound 0.1 µM, first compound 0.0949 µM) of the same compound?
The viability, T/C was 7.24%.

And the viability, T/C (second compound 0.1 µM, first compound 0.3 µM)?
The viability, T/C was 6.07%.

What about the viability, T/C (second compound 0.1 µM, first compound 0.949 µM) of the same compound?
Its viability, T/C is 3.14%.

And the viability, T/C (second compound 0.1 µM, first compound 3 µM)?
Its viability, T/C is 0.52%.

And the viability, T/C (second compound 0.316 µM, first compound 0.00949 µM)?
Its viability, T/C is 2.98%.

What about the viability, T/C (second compound 0.316 µM, first compound 0.03 µM) of the same compound?
The viability, T/C was 2.65%.

And the viability, T/C (second compound 0.316 µM, first compound 0.0949 µM)?
Its viability, T/C is 1.65%.

And the viability, T/C (second compound 0.316 µM, first compound 0.3 µM)?
The viability, T/C was 0.71%.

And the viability, T/C (second compound 0.316 µM, first compound 0.949 µM)?
The viability, T/C was 0.32%.

And the viability, T/C (second compound 0.316 µM, first compound 3 µM)?
The viability, T/C was 0.75%.

And the viability, T/C (second compound 1 µM, first compound 0.00949 µM)?
The viability, T/C was 0.94%.

And the viability, T/C (second compound 1 µM, first compound 0.03 µM)?
Its viability, T/C is 0.62%.

And the viability, T/C (second compound 1 µM, first compound 0.0949 µM)?
The viability, T/C was 0.53%.

And the viability, T/C (second compound 1 µM, first compound 0.3 µM)?
Its viability, T/C is 0.36%.

What about the viability, T/C (second compound 1 µM, first compound 0.949 µM) of the same compound?
Its viability, T/C is 0.26%.

What about the viability, T/C (second compound 1 µM, first compound 3 µM) of the same compound?
Its viability, T/C is 0.49%.

Which results are given for `C#Cc1c(F)ccc2cc(O)cc(-c3ncc4c(N5CC6CCC(C5)N6)nc(OCC56CCCN5CC(F)C6)nc4c3F)c12` (stereo unspecified)?
viability, T/C (compound 0.0316 µM): 89.8% and 97.7% and 83.1%; viability, T/C (compound 0.1 µM): 91.7% and 82.7% and 95.5%; viability, T/C (compound 0.316 µM): 124% and 84% and 113%; viability, T/C (compound 1 µM): 95.2% and 62.6% and 64%; viability, T/C (compound 3.16 µM): 61.5% and 78.3% and 73.5%; viability, T/C (compound 10 µM): 36.6% and 30.7% and 31.1%; pIC50 (curve of compound): 5.27 and 5.26 and 5.25

Which results are given for `Cn1nccc1Nc1nccc(-c2ccn(C(CO)c3ccc(Cl)c(F)c3)c(=O)c2)n1` (stereo unspecified) + Cc1nc(NC(=O)N2CCCC2C(N)=O)sc1-c1ccnc(C(C)(C)C(F)(F)F)c1?
pIC50 [1]: 6.83; pIC50 [2]: 6.92; pIC50 [3]: > 7.50; pIC50 [4]: > 7.50; pIC50 (curve of first compound, second compound 3.16 µM): > 7.50; pIC50 (curve of first compound, second compound 10 µM): > 7.50; viability, T/C (second compound 0.0316 µM, first compound 0.0316 µM): 62.5%; viability, T/C (second compound 0.0316 µM, first compound 0.1 µM): 58.2%; viability, T/C (second compound 0.0316 µM, first compound 0.316 µM): 37%; viability, T/C (second compound 0.0316 µM, first compound 1 µM): 24.5%; viability, T/C (second compound 0.0316 µM, first compound 3.16 µM): 20.9%; viability, T/C (second compound 0.0316 µM, first compound 10 µM): 11.4%; viability, T/C (second compound 0.1 µM, first compound 0.0316 µM): 53.1%; viability, T/C (second compound 0.1 µM, first compound 0.1 µM): 54.8%; viability, T/C (second compound 0.1 µM, first compound 0.316 µM): 32.4%; viability, T/C (second compound 0.1 µM, first compound 1 µM): 18.5%; viability, T/C (second compound 0.1 µM, first compound 3.16 µM): 17.9%; viability, T/C (second compound 0.1 µM, first compound 10 µM): 10.8%; viability, T/C (second compound 0.316 µM, first compound 0.0316 µM): 36%; viability, T/C (second compound 0.316 µM, first compound 0.1 µM): 36.4%; viability, T/C (second compound 0.316 µM, first compound 0.316 µM): 21.3%; viability, T/C (second compound 0.316 µM, first compound 1 µM): 12.9%; viability, T/C (second compound 0.316 µM, first compound 3.16 µM): 14%; viability, T/C (second compound 0.316 µM, first compound 10 µM): 7.34%; viability, T/C (second compound 1 µM, first compound 0.0316 µM): 19.1%; viability, T/C (second compound 1 µM, first compound 0.1 µM): 18.9%; viability, T/C (second compound 1 µM, first compound 0.316 µM): 11.6%; viability, T/C (second compound 1 µM, first compound 1 µM): 8%; viability, T/C (second compound 1 µM, first compound 3.16 µM): 7.78%; viability, T/C (second compound 1 µM, first compound 10 µM): 3.02%; viability, T/C (second compound 3.16 µM, first compound 0.0316 µM): 13.6%; viability, T/C (second compound 3.16 µM, first compound 0.1 µM): 10.8%; viability, T/C (second compound 3.16 µM, first compound 0.316 µM): 9.01%; viability, T/C (second compound 3.16 µM, first compound 1 µM): 4.15%; viability, T/C (second compound 3.16 µM, first compound 3.16 µM): 3.68%; viability, T/C (second compound 3.16 µM, first compound 10 µM): 1.12%; viability, T/C (second compound 10 µM, first compound 0.0316 µM): 7.41%; viability, T/C (second compound 10 µM, first compound 0.1 µM): 4.45%; viability, T/C (second compound 10 µM, first compound 0.316 µM): 2.55%; viability, T/C (second compound 10 µM, first compound 1 µM): 1.89%; viability, T/C (second compound 10 µM, first compound 3.16 µM): 0.52%; viability, T/C (second compound 10 µM, first compound 10 µM): 0.24%
